According to PubChem BioAssay AID248 (DTP/NCI, 2004):
Values joined by “and” are separate entries in the source; they are usually repeats but may differ in a detail not shown here. Equal entries are not always repeated. Toxic doses and inconclusive results are not listed. Rule as the data show it: active = T/C of 150% or more; inactive = T/C below 125%.

Test system: L1210 leukemia ip in BDF1 mice, survival T/C
Experiment: NCI In Vivo Anticancer Drug Screen. Data for tumor model L1210 Leukemia (intraperitoneal) in B6D2F1 (BDF1) mice
Conditions: endpoint: mean survival time, higher = longer survival
Outline: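 In this screen, tumor-bearing mice given compound are compared to those given vehicle, and their survival values are reported as a treated-to-control quotient.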

[1] = dose: 100.0 mg/kg/injection, schedule: Q01DX009 (ip), vehicle: saline with Tween-80
[2] = dose: 200.0 mg/kg/injection, schedule: Q01DX009 (ip), vehicle: saline with Tween-80
[3] = dose: 400.0 mg/kg/injection, schedule: Q01DX009 (ip), vehicle: saline with Tween-80
[4] = dose: 100.0 mg/kg/injection, schedule: Q01DX009 (ip), vehicle: Klucel (hydroxypropylcellulose) (HPC)
[5] = dose: 100.0 mg/kg/injection, schedule: Q04DX003 (ip), vehicle: Klucel (hydroxypropylcellulose) (HPC)
[6] = dose: 200.0 mg/kg/injection, schedule: Q01DX009 (ip), vehicle: Klucel (hydroxypropylcellulose) (HPC)
[7] = dose: 200.0 mg/kg/injection, schedule: Q04DX003 (ip), vehicle: Klucel (hydroxypropylcellulose) (HPC)
[8] = dose: 400.0 mg/kg/injection, schedule: Q04DX003 (ip), vehicle: Klucel (hydroxypropylcellulose) (HPC)
[9] = dose: 400.0 mg/kg/injection, schedule: Q01DX009 (ip), vehicle: Klucel (hydroxypropylcellulose) (HPC)
[10] = dose: 100.0 mg/kg/injection, schedule: Q01DX009 (ip), vehicle: saline
[11] = dose: 100.0 mg/kg/injection, schedule: Q04DX003 (ip), vehicle: saline with Tween-80
[12] = dose: 200.0 mg/kg/injection, schedule: Q04DX003 (ip), vehicle: saline with Tween-80
[13] = dose: 400.0 mg/kg/injection, schedule: Q04DX003 (ip), vehicle: saline with Tween-80
[14] = dose: 100.0 mg/kg/injection, schedule: Q04DX002 (ip), vehicle: saline with Tween-80
[15] = dose: 200.0 mg/kg/injection, schedule: Q04DX002 (ip), vehicle: saline with Tween-80
[16] = dose: 400.0 mg/kg/injection, schedule: Q04DX002 (ip), vehicle: saline with Tween-80
[17] = dose: 100.0 mg/kg/injection, schedule: Q01DX001 (ip), vehicle: Klucel (hydroxypropylcellulose) (HPC)

Measured: T/C

CC1(C)COC(c2ccccc2)=N1
inactive: [1] 105 % of control | dose: 100.0 mg/kg/injection, schedule: Q04DX003 (ip), vehicle: saline sonified 93 % of control | [2] 103 % of control | dose: 200.0 mg/kg/injection, schedule: Q04DX003 (ip), vehicle: saline sonified 87 % of control | [3] 102 % of control | dose: 400.0 mg/kg/injection, schedule: Q04DX003 (ip), vehicle: saline sonified 90 % of control

CNc1ccccc1Cc1ccccc1
inactive: [4] 96 % of control | [5] 103 % of control | [6] 99 % of control | [7] 93 % of control | [8] 98 % of control

CC(=O)N(C)c1ccc(NC(=O)C2CCCCC2C(=O)O)cc1 (stereo unspecified)
inactive: [4] 98 % of control | [6] 95 % of control | [9] 93 % of control

O=c1ccc2c([nH]1)CCC2
inactive: dose: 25.0 mg/kg/injection, schedule: Q01DX009 (ip), vehicle: saline 111 % of control | dose: 25.0 mg/kg/injection, schedule: Q04DX003 (ip), vehicle: saline with Tween-80 94 % of control | dose: 50.0 mg/kg/injection, schedule: Q01DX009 (ip), vehicle: saline 121 % of control | dose: 50.0 mg/kg/injection, schedule: Q04DX003 (ip), vehicle: saline with Tween-80 98 % of control | [10] 101 % of control | [5] 100 % of control | [11] 94 % of control

O=Cc1c[nH]c2nccnc12
inactive: [10] 94 % of control | dose: 100.0 mg/kg/injection, schedule: Q04DX003 (ip), vehicle: saline 96 % of control | dose: 200.0 mg/kg/injection, schedule: Q01DX009 (ip), vehicle: saline 97 % of control | dose: 200.0 mg/kg/injection, schedule: Q04DX003 (ip), vehicle: saline 93 % of control | dose: 400.0 mg/kg/injection, schedule: Q01DX009 (ip), vehicle: saline 100 % of control | dose: 400.0 mg/kg/injection, schedule: Q04DX003 (ip), vehicle: saline 93 % of control

COS(C)(=O)=O
inactive: dose: 12.5 mg/kg/injection, schedule: Q01DX010 (ip), vehicle: saline 101 % of control and 91 % of control | dose: 25.0 mg/kg/injection, schedule: Q01DX010 (ip), vehicle: saline 102 % of control and 106 % of control | dose: 25.0 mg/kg/injection, schedule: Q01DX Z (ip), vehicle: carboxymethylcellulose (CMC) 97 % of control | dose: 50.0 mg/kg/injection, schedule: Q01DX010 (ip), vehicle: saline 96 % of control and 106 % of control | dose: 50.0 mg/kg/injection, schedule: Q01DX Z (ip), vehicle: carboxymethylcellulose (CMC) 106 % of control | dose: 100.0 mg/kg/injection, schedule: Q01DX010 (ip), vehicle: saline 95 % of control and 102 % of control | dose: 100.0 mg/kg/injection, schedule: Q01DX Z (ip), vehicle: carboxymethylcellulose (CMC) 95 % of control

CCC1(O)CC2c3ccccc3CCN2CC1CC(C)C (stereo unspecified)
inactive: dose: 12.5 mg/kg/injection, schedule: Q01DX009 (ip), vehicle: Klucel (hydroxypropylcellulose) (HPC) 101 % of control | dose: 25.0 mg/kg/injection, schedule: Q01DX009 (ip), vehicle: Klucel (hydroxypropylcellulose) (HPC) 116 % of control | dose: 25.0 mg/kg/injection, schedule: Q04DX003 (ip), vehicle: Klucel (hydroxypropylcellulose) (HPC) 110 % of control | dose: 50.0 mg/kg/injection, schedule: Q01DX009 (ip), vehicle: Klucel (hydroxypropylcellulose) (HPC) 108 % of control | dose: 50.0 mg/kg/injection, schedule: Q04DX003 (ip), vehicle: Klucel (hydroxypropylcellulose) (HPC) 98 % of control | [4] 121 % of control | [5] 113 % of control | [7] 107 % of control

COc1ccc(CC(=O)N2CCc3cc(OC)c(OC)cc3C2O)cc1OC (stereo unspecified)
inactive: [1] 96 % of control | [11] 100 % of control | [2] 91 % of control | [12] 103 % of control | [3] 88 % of control | [13] 102 % of control

c1ccc([As]2c3ccccc3Nc3ccccc32)cc1
inactive: [14] 89 % of control | [15] 86 % of control | [16] 86 % of control

O/N=C(\C=N\O)c1ccccc1
inactive: dose: 100.0 mg/kg/injection, schedule: Q01DX009 (sc), vehicle: olive oil, sesame oil, peanut oil 109 % of control | dose: 100.0 mg/kg/injection, schedule: Q04DX003 (sc), vehicle: olive oil, sesame oil, peanut oil 98 % of control | dose: 200.0 mg/kg/injection, schedule: Q01DX009 (sc), vehicle: olive oil, sesame oil, peanut oil 112 % of control | dose: 200.0 mg/kg/injection, schedule: Q04DX003 (sc), vehicle: olive oil, sesame oil, peanut oil 101 % of control | dose: 400.0 mg/kg/injection, schedule: Q01DX009 (sc), vehicle: olive oil, sesame oil, peanut oil 98 % of control

[O-]/[N+](=N\Nc1ccccc1)c1ccccc1
inactive: dose: 7.5 mg/kg/injection, schedule: Q01DX009 (ip), vehicle: saline with Tween-80 107 % of control | dose: 15.0 mg/kg/injection, schedule: Q01DX009 (ip), vehicle: saline with Tween-80 104 % of control | dose: 30.0 mg/kg/injection, schedule: Q01DX009 (ip), vehicle: saline with Tween-80 89 % of control | dose: 60.0 mg/kg/injection, schedule: Q01DX009 (ip), vehicle: saline with Tween-80 96 % of control

Cc1ccc(S(=O)(=O)N(c2cc([N+](=O)[O-])ccc2Br)S(=O)(=O)c2ccc(C)cc2)cc1
inactive: [14] 88 % of control | [15] 98 % of control | [16] 88 % of control

Cc1c(NC=O)c(=O)n(-c2ccccc2)n1C
inactive: [4] 92 % of control | [5] 107 % of control | [6] 93 % of control | [7] 100 % of control | [9] 100 % of control | [8] 105 % of control

CC1(C)C2CCC1(C)C(N=C(N)CSS(=O)(=O)O)C2 (stereo unspecified)
inactive: dose: 12.5 mg/kg/injection, schedule: Q04DX002 (ip), vehicle: Klucel (hydroxypropylcellulose) (HPC) 112 % of control | dose: 25.0 mg/kg/injection, schedule: Q01DX001 (ip), vehicle: Klucel (hydroxypropylcellulose) (HPC) 101 % of control | dose: 25.0 mg/kg/injection, schedule: Q04DX002 (ip), vehicle: Klucel (hydroxypropylcellulose) (HPC) 98 % of control | dose: 50.0 mg/kg/injection, schedule: Q01DX001 (ip), vehicle: Klucel (hydroxypropylcellulose) (HPC) 98 % of control | [17] 87 % of control

CCN1C(=O)CN=C(c2ccccn2)c2cc(Cl)ccc21
inactive: [17] 95 % of control | dose: 200.0 mg/kg/injection, schedule: Q01DX001 (ip), vehicle: Klucel (hydroxypropylcellulose) (HPC) 101 % of control | dose: 400.0 mg/kg/injection, schedule: Q01DX001 (ip), vehicle: Klucel (hydroxypropylcellulose) (HPC) 96 % of control

CCOC(OCC)c1c(Cl)cccc1Cl
inactive: [1] 98 % of control | [11] 99 % of control | [2] 88 % of control | [12] 93 % of control | [3] 101 % of control | [13] 93 % of control

CCOCc1nc(N)nc(N)c1-c1ccc(Cl)c(Cl)c1
inactive: dose: 100.0 mg/kg/injection, schedule: Q01DX001 (ip), vehicle: carboxymethylcellulose (CMC) 97 % of control | dose: 200.0 mg/kg/injection, schedule: Q01DX001 (ip), vehicle: carboxymethylcellulose (CMC) 89 % of control | dose: 400.0 mg/kg/injection, schedule: Q01DX001 (ip), vehicle: carboxymethylcellulose (CMC) 108 % of control
